Data published in US20160361365A1, “TREATMENT OF CNS DISEASE WITH ENCAPSULATED INDUCIBLE CHOROID PLEXUS CELLS” (Living Cell Technologies New Zealand Limited, priority 2015, published 2016).
Where a name gives a salt, the structure may show the parent alone.

How the values were obtained:
Assay type in all cases: cell-based, porcine
encapsulated CP = test: VEGF secretion by encapsulated CP cultured with or without inducers; settings: 1000 CP-containing capsules, 24 hours at 37° C.; FIG. 3B
Protocol: To determine that certain inducers can increase the secretion of CSF components by CPs that have been encapsulated, 1000 CP-containing capsules were cultured in 24-well multi-well plate with or without various inducers including LiCl at 37° C. for 24 hours. Aliquots of supernatant fluids were collected and assayed for VEGF as described in EXAMPLE 1. Aliquots of the cell cultures were also collected for DNA quantification to determine the relative number of cells in each well as described in EXAMPLE 1.

[1] = test system: CP clusters containing CP cells; test: RNA-Seq of CP clusters for genes encoding CSF components after exposure to inducing agent; settings: 12 mM LiCl, 72 hours, vs controls; FIG. 8
Protocol: In a further experiment to identify genes for which the expression levels were altered in CP cells following contact with an inducing agent as provided herein, CP clusters (5×10^3 clusters/mL) containing CP cells, obtained from 12-13 day-old piglets and cultured in vitro for 20-22 days, were incubated for 72 hours in serum-free, phenol-free RPMI medium containing 10 mM nicotinamide in the absence (controls) or presence (inducing agent-treated) of 12 mM LiCl. Cell pellets were harvested and 0.25 ml of TRI™ Reagent (Catalog # T9424, Sigma-Aldrich Corporation, St. Louis, Mo.) was added to lyse the cells. The lysate was pipetted up and down approximately 10 times and stored at −80° C. until RNA-Seq analysis. […] Corresponding human genes encoding human CSF components were identified by established orthology analysis (Groenen et al., 2012 Nature 491(7424):393-8).

[2] = test system: Choroid plexus (CP) cell clusters; test: Total antioxidant capacity (TAC) of culture supernatants of CP cell clusters exposed to candidate CP inducing agents (OxiSelect TAC assay); settings: non-encapsulated CP clusters, 72 hours; FIG. 2
Protocol: Choroid plexus (CP) cell clusters comprising CP cells (5×10^3 clusters/mL) were prepared as described above in Example 1 but without encapsulation and cultured at 37° C. in a 5% CO2 incubator for 24 or 72 hours in vitro in 24-well ultra-low (cell) attachment plates, and culture supernatants were tested for total antioxidant capacity (TAC) using the OxiSelect™ TAC assay (Cat. No. STA-360, Cell Biolabs, Inc., San Diego, Calif.) according to the manufacturer's instructions. To avoid interference in the TAC assay from medium components, cultures were incubated in serum-free, phenol-free RPMI media supplemented with 10 mM nicotinamide. A panel of candidate CP inducing agents was also tested for effects on TAC elaboration by CP cells. Control wells that received the culture medium alone or with each candidate CP inducing agent, but no CP cell clusters, were also incubated and tested for TAC.

SMILES | VEGF secretion by encapsulated CP versus culture without inducers (encapsulated CP) | expression levels of porcine genes encoding known CSF components [1] | release of total antioxidant capacity (TAC) by CP cells [2]
[Cl-].[Li+] [LiCl, lithium chloride] | induced VEGF secretion by encapsulated CP above the level secreted by encapsulated CPs cultured without inducers | expression levels increased (FIG. 8A-E) or decreased (FIG. 8F-K) | promoted the release by CP cells of elevated TAC levels
COC1=C(OC)C(=O)C(CCCCCCCCCC[P+](c2ccccc2)(c2ccccc2)c2ccccc2)=C(C)C1=O [MitoQ, 10-(6′-ubiquinoyl) decyltriphenylphosphonium salt] | induced VEGF secretion by encapsulated CPs |  | 
O=C([O-])[O-].[Li+].[Li+] [lithium carbonate] | induced VEGF secretion by encapsulated CP above the level secreted by encapsulated CPs cultured without inducers |  | 
NCCS(=O)(=O)O [taurine, 2-aminoethanesulfonic acid] | induced VEGF secretion by encapsulated CPs |  | 
